Source: US11639350B2, “Heteroaryldihydropyrimidine derivatives and methods of treating hepatitis B infections” (Janssen Pharmaceutica NV, priority 2018, dated 2023)
pEC50: −log10 of the molar value. Where two headings read alike, the source gives them in different places.

Columns and labels:
Format in all cases: cell-based
[1] = test system: HBV; test: HBV inhibitory activity: HBV DNA in the culture medium of HepG2.2.15 cells by q-PCR; settings: HepG2.2.15 cells, 6 days of compound treatment, HBV DNA in culture medium by q-PCR, highest concentration 10 μM, read-out: EC50
Procedure, shortened: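 HepG2.2.15 cells in 2% FBS medium, 40,000 per well, treated 6 days with compound (medium refreshed once), eight 3-fold dilutions from 10 μM top. HBV DNA extracted from culture medium and quantified by q-PCR; EC50 averaged over repeats. Cytotoxicity run in parallel at 5,000 cells per well, top 100 μM, giving CC50.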

[2] = test system: HepG2.2.15 cells; test: Cytotoxicity determination in HepG2.2.15 cells (CCK-8); settings: 6 days of compound treatment, CCK-8, highest concentration 100 μM
Procedure, shortened: (§1)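 HepG2.2.15 cells seeded at 5,000 cells/well in 2% FBS medium, incubated overnight at 37° C., then treated 6 days with compounds (8 points, 3-fold dilutions, top 100 μM), medium refreshed once midway. CCK-8 added for 2.5 h; A450 read against 630 nm reference; CC50 calculated, averaged over repeats.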

[3] = as above; settings: human, 6 days of compound treatment, CCK-8, highest concentration 100 μM
Procedure, shortened: as §1

[4] = Hepatitis B virus, HepG2.2.15, 144 h

Compound	pEC50 [1, 4]	CC50 [2] [nM]	pEC50 [1]	CC50 at 6 days [3] [nM]
COC(=O)C1=C([C@H]2CC[C@H](NS(C)(=N)=O)CC2)NC(c2nccs2)=NC1c1ccc(F)cc1Cl (single isomer, unassigned) [Compound 287B, Methyl 4-(2-chloro-4-fluorophenyl)-6-((trans)-4-(methylsulfonoimidamido)cyclohexyl)-2-(thiazol-2-yl)-1,4-dihydropyrimidine-5-carboxylate]	7.14	23100		
COC(=O)C1=C(C2CCN(S(=O)(=O)CC(=O)O)C2)NC(c2nccs2)=NC1c1ccc(F)cc1Cl (single isomer, unassigned) [Compound 214C, 2-((−3-(−6-(2-Chloro-4-fluorophenyl)-5-(methoxycarbonyl)-2-(thiazol-2-yl)-3,6-dihydropyrimidin-4-yl)pyrrolidin-1-yl)sulfonyl)acetic Acid]		> 100000	6.11	
CCOC(=O)C1=C([C@@H]2CC[C@H](C(=O)O)OC2)NC(c2nccs2)=NC1c1ccc(F)cc1Cl (single isomer, unassigned) [Compound 265H, (cis)-5-(−6-(2-Chloro-4-fluorophenyl)-5-(ethoxycarbonyl)-2-(thiazol-2-yl)-3,6-dihydropyrimidin-4-yl)tetrahydro-2H-pyran-2-carboxylic Acid]		> 100000	6.67	
COC(=O)C1=C(C2CCC(NC(C)=O)C2)NC(c2nccs2)=NC1c1ccc(F)c(F)c1Cl (single isomer, unassigned) [Compound 300B, Methyl 6-(−3-acetamidocyclopentyl)-4-(2-chloro-3,4-difluorophenyl)-2-(thiazol-2-yl)-1,4-dihydropyrimidine-5-carboxylate]		28600	7.89	
CCOC(=O)C1=C(C2CCN(S(=O)(=O)C3CC(C)(C(=O)O)C3)CC2)NC(c2nccs2)=NC1c1cccc(F)c1Br (single isomer, unassigned) [Compound 414C, (trans)-3-((4-(6-(2-Bromo-3-fluorophenyl)-5-(ethoxycarbonyl)-2-(thiazol-2-yl)-3,6-dihydropyrimidin-4-yl)piperidin-1-yl)sulfonyl)-1-methylcyclobutanecarboxylic Acid]		17300	7.72	
COC(=O)C1=C(C2CCN(S(C)(=O)=O)C2)NC(c2nccs2)=NC1c1ccc(F)cc1Cl (single isomer, unassigned) [Compound 65A, 4-(2-Chloro-4-fluoro-phenyl)-6-(1-methanesulfonyl-pyrrolidin-3-yl)-2-thiazol-2-yl-1,4-dihydro-pyrimidine-5-carboxylic Acid Methyl Ester]	6.37	69100		
COC(=O)C1=C([C@H]2CC[C@H](N(CCCO)S(C)(=O)=O)CC2)NC(c2nccs2)=NC1c1ccc(F)cc1Cl (single isomer, unassigned) [Compound 431B, (trans)-Methyl 4-(2-chloro-4-fluorophenyl)-6-(4-(N-(3-hydroxypropyl)methylsulfonamido)cyclohexyl)-2-(thiazol-2-yl)-1,4-dihydropyrimidine-5-carboxylate]	7.28			28100
COC(=O)C1=C(C23CC(NS(=O)(=O)CCO)(C2)C3)NC(c2nccs2)=NC1c1ccc(F)cc1Cl (centres unmarked) [Compound 390B, Methyl 4-(2-chloro-4-fluorophenyl)-6-(3-(2-hydroxyethylsulfonamido)bicyclo[1.1.1]pentan-1-yl)-2-(thiazol-2-yl)-1,4-dihydropyrimidine-5-carboxylate]	7.27			45300
COC(=O)C1=C([C@H]2CC[C@H](S(=O)(=O)NCCO)CC2)NC(c2nccs2)=NC1c1ccc(F)c(F)c1Cl (single isomer, unassigned) [Compound 291C, (trans)-Methyl 4-(2-chloro-3,4-difluorophenyl)-6-(4-(N-(2-hydroxyethyl)sulfamoyl)cyclohexyl)-2-(thiazol-2-yl)-1,4-dihydropyrimidine-5-carboxylate]	7.80			12000
COC(=O)C1=C(C2CCN(S(=O)(=O)[C@H]3CC[C@H](CC(=O)O)CC3)CC2)NC(c2nccs2)=NC1c1ccc(F)c(F)c1Cl (relative stereo) [Compound 478A, (trans)-2-(4-((4-(6-(2-Chloro-3,4-difluorophenyl)-5-(methoxycarbonyl)-2-(thiazol-2-yl)-3,6-dihydropyrimidin-4-yl)piperidin-1-yl)sulfonyl)cyclohexyl)acetic Acid]	7.68			9900
COC(=O)C1=C([C@H]2CC[C@H](NS(C)(=O)=O)CC2)NC(c2ncc(F)cc2F)=NC1c1ccc(F)cc1Cl (single isomer, unassigned) [Compound 396B, (trans)-Methyl 4-(2-chloro-4-fluorophenyl)-2-(3,5-difluoropyridin-2-yl)-6-(4-(methylsulfonamido)cyclohexyl)-1,4-dihydropyrimidine-5-carboxylate]	7.70			22500
COC(=O)C1=C(C2CCN(S(=O)(=O)[C@@H]3CC[C@H](C(=O)O)C3)CC2)NC(c2nccs2)=NC1c1ccc(F)cc1Cl (relative stereo) [Compound 311B, (cis)-3-((4-(6-(2-Chloro-4-fluorophenyl)-5-(methoxycarbonyl)-2-(thiazol-2-yl)-3,6-dihydropyrimidin-4-yl)piperidin-1-yl)sulfonyl)-cyclopentanecarboxylic Acid]	7.01			> 100000
COC(=O)C1=C(C2CCN(S(=O)(=O)c3cn[nH]c3)CC2)NC(c2nccs2)=NC1c1ccc(F)c(F)c1Cl (centres unmarked) [Compound 324, methyl 6-(1-((1H-pyrazol-4-yl)sulfonyl)piperidin-4-yl)-4-(2-chloro-3,4-difluorophenyl)-2-(thiazol-2-yl)-1,4-dihydropyrimidine-5-carboxylate]	8.30			9800
COC(=O)C1=C(C2CCN(S(=O)(=O)CC(F)(F)F)CC2)NC(c2nccs2)=NC1c1ccc(F)cc1Cl (centres unmarked) [Compound 216, Methyl 4-(2-chloro-4-fluorophenyl)-2-(thiazol-2-yl)-6-(1-((2,2,2-trifluoroethyl)sulfonyl)piperidin-4-yl)-1,4-dihydropyrimidine-5-carboxylate]	7.05			> 100000
COC(=O)C1=C(C2CCN(S(=O)(=O)C3CC(C)(C(=O)O)C3)CC2)NC(c2nccs2)=NC1c1ccc(F)cc1Cl (stereo not drawn) [Compound 141, (trans)-3-((4-(6-(2-chloro-4-fluorophenyl)-5-(methoxycarbonyl)-2-(thiazol-2-yl)-3,6-dihydropyrimidin-4-yl)piperidin-1-yl)sulfonyl)-1-methylcyclobutane-1-carboxylic Acid]	7.29			30700
CNC(=O)C1COC(C2=C(C(=O)OC)C(c3cccc(F)c3Cl)N=C(c3nccs3)N2)C1 (centres unmarked) [Compound 263, Methyl 4-(2-chloro-3-fluorophenyl)-6-(4-(methylcarbamoyl)-tetrahydrofuran-2-yl)-2-(thiazol-2-yl)-1,4-dihydropyrimidine-5-carboxylate]	6.82			81100
COC(=O)C1=C(C2CCN(S(=O)(=O)c3cnn(CC(O)C(F)(F)F)c3)CC2)NC(c2nccs2)=NC1c1ccc(F)c(F)c1Cl (centres unmarked) [Compound 325, Methyl 4-(2-chloro-3,4-difluorophenyl)-2-(thiazol-2-yl)-6-(1-((1-(3,3,3-trifluoro-2-hydroxypropyl)-1H-pyrazol-4-yl)sulfonyl)piperidin-4-yl)-1,4-dihydropyrimidine-5-carboxylate]	8.30			7900
COC(=O)C1=C(C2CCC(C(=O)O)C2)NC(c2nccs2)=NC1c1cccc(F)c1Cl (centres unmarked) [Compound 77, 3-(6-(2-Chloro-3-fluorophenyl)-5-(methoxycarbonyl)-2-(thiazol-2-yl)-3,6-dihydropyrimidin-4-yl)cyclopentanecarboxylic Acid]	7.15			34200
CCOC(=O)C1=C([C@H]2CC[C@H](C(=O)OC)CC2)NC(c2nccs2)=NC1c1cccc(F)c1Cl (relative stereo) [Compound 22Y, Ethyl 4-(2-chloro-3-fluorophenyl)-6-(trans-4-(methoxycarbonyl)-cyclohexyl)-2-(thiazol-2-yl)-1,4-dihydropyrimidine-5-carboxylate]	6.65			75900
COC(=O)C1=C(C2CCN(S(=O)(=O)C3CC(O)C3)CC2)NC(c2nccs2)=NC1c1ccc(F)cc1Cl (single isomer, unassigned) [Compound 335A, Methyl 4-(2-chloro-4-fluorophenyl)-6-(1-((3-hydroxycyclobutyl)sulfonyl)piperidin-4-yl)-2-(thiazol-2-yl)-1,4-dihydropyrimidine-5-carboxylate]	7.70			12200
COC(=O)C1=C(C2CCN(S(=O)(=O)C3COC3)C2)NC(c2nccs2)=NC1c1ccc(F)cc1Cl (centres unmarked) [Compound 255, Methyl 4-(2-chloro-4-fluorophenyl)-6-(−1-(oxetan-3-ylsulfonyl)pyrrolidin-3-yl)-2-(thiazol-2-yl)-1,4-dihydropyrimidine-5-carboxylate]	7.31			24100
CCOC(=O)C1=C([C@H]2CC[C@H](C(N)=O)CC2)NC(c2nccs2)=NC1c1ccc(F)cc1Cl (stereo partly drawn) [Compound 163, (trans)-ethyl 6-(−4-carbamoylcyclohexyl)-4-(2-chloro-4-fluorophenyl)-2-(thiazol-2-yl)-1,4-dihydropyrimidine-5-carboxylate]	7.19			23900
